Results: publication PMC7555312, “Functional Characterization of Temporin-SHe, a New Broad-Spectrum Antibacterial and Leishmanicidal Temporin-SH Paralog from the Sahara Frog (Pelophylax saharicus)” (International Journal of Molecular Sciences, 2020)
Where no end group is shown, it is not given here.

Experiments:
[1] = tested on: L. braziliensis promastigotes (strain MHOM/BR/75/M2904); type: cell-based, Leishmania braziliensis; conditions: 72 h, 26 °C
Experimental: (§1) Antileishmanial activity of temporin-SHe was analyzed by a luminescence-based growth inhibition method using Leishmania promastigotes transfected with the vector pGMαNEOαLUC containing the gene LUC that codes for the firefly luciferase, cultured at 26 °C in SDM-79 medium supplemented with 10% fetal calf serum (Gibco), as previously described. Mid-log-phase promastigotes (1.25 × 10^6 cells/mL) were added in 96-well plates containing different concentrations of synthetic temporin-SHe (3.125–50 µM, final concentrations), and incubated 72 h at 26 °C. […] IC50 was determined with GraphPad Prism® 6.0 software (GraphPad Software, La Jolla, CA, USA) using a sigmoidal dose–response curve fitting equation.

[2] = tested on: L. infantum promastigotes (strain MHOM/MA/67/ITMAP-263); type: cell-based, Leishmania infantum; conditions: 72 h, 26 °C
Experimental: as §1

[3] = tested on: L. major promastigotes (strain MHOM/SU/73/5-ASKH); type: cell-based, Leishmania major; conditions: 72 h, 26 °C
Experimental: as §1

E. coli ATCC 25922 [4] = type: cell-based, Escherichia coli
Experimental: (§3) Antifungal activity was evaluated against C. albicans (ATCC 90028), C. parapsilosis (ATCC 22019) and S. cerevisiae.
(§4) Antimicrobial activity was assessed with a liquid growth inhibition assay performed according to a previously described protocol [14] using the Clinical and Laboratory Standards Institute (CLSI) guidelines. Briefly, in 96-well microtitration plates, mid-log-phase bacteria diluted to 10^6 CFU/mL in Mueller–Hinton (MH) broth were added to different concentrations of synthetic temporin-SHe (1–200 µM, final concentrations) and incubated at 37 °C for 18–20 h, under shaking (150 rpm). For E. faecalis, L. ivanovii and yeasts/fungi, 10^6 CFU/mL suspensions were prepared in LB broth, brain heart infusion (BHI) medium and Yeast Peptone Dextrose (YPD) medium, respectively, and incubation was performed at 30 °C for yeasts/fungi. […] MIC values represent the average of three independent experiments, each performed in triplicate with negative (no peptide) and positive (formaldehyde 0.7%) controls.

E. coli ATCC 25922 [5] = assay: Time-killing assay; type: cell-based, Escherichia coli; conditions: two-fold MIC (50 µM temporin-SHe), 10^6 cfu/mL in PBS, plate counting
Experimental: (§2) Aliquots were withdrawn at different times and spread onto LB agar plates for cell counting after overnight incubation at 37 °C. Controls corresponding to the bacterial suspensions without peptide were also run. Two independent experiments were performed in triplicate. Results were expressed as the mean ± S.D. of a representative experiment.

P. aeruginosa ATCC 27853 = type: cell-based, Pseudomonas aeruginosa
Experimental: as §3, §4

A. baumannii ATCC 19606 = type: cell-based, Acinetobacter baumannii
Experimental: as §4

S. aureus ATCC 25923 [6] = type: cell-based, Staphylococcus aureus
Experimental: as §4

[7] = tested on: C. parapsilosis ATCC 22019; type: cell-based, Candida parapsilosis
Experimental: as §3, §4

S. aureus ST1065 [8] = type: cell-based, Staphylococcus aureus
B. megaterium = type: cell-based, Bacillus megaterium
Experimental: as §3, §4

S. aureus ATCC 25923 [9] = assay: Membrane depolarization assay, DiSC3(5); type: cell-based, Staphylococcus aureus; conditions: peptide at 2-fold MIC; 10^7 cfu/mL in PBS, 1 µM DiSC3(5), 37 °C, 20 min recording; representative of three assays
Experimental: The depolarization of S. aureus ATCC 25923 cytoplasmic membrane induced by temporin-SHe and temporin-SHd was investigated using the membrane potential-sensitive cyanine dye DiSC3(5) (3,3′-dipropylthiadicarbocyanine iodide), as detailed in [29]. An amount of 700 µL of bacteria resuspended in PBS (10^7 cfu/mL) containing 1 μM DiSC3(5) were preincubated in the dark during 10 min at 37 °C, and then 100 µL of 1 mM KCl were added to the mixture. Fluorescence (λex = 622 nm; λem = 670 nm) was recorded during 20 min at 37 °C (Varian Cary Eclipse fluorescence spectrophotometer) after addition of the peptide (200 µL, final concentration: 2-fold above the MIC). Three independent experiments were performed and the results correspond to a representative experiment with negative (PBS) and positive (melittin) controls.

S. aureus ST1065 [10] = assay: Time-killing assay; type: cell-based, Staphylococcus aureus; conditions: two-fold MIC (6.25 µM temporin-SHe), 10^6 cfu/mL in PBS, plate counting
Experimental: as §2

E. coli strains = type: cell-based, Escherichia coli
Experimental: as §3, §4

S. aureus ST1065 [11] = assay: Membrane permeabilization assay (ONPG hydrolysis); type: cell-based, Staphylococcus aureus; conditions: increasing peptide concentrations, 2.5 mM ONPG in PBS, 37 °C
Experimental: The ability of temporin-SHe to permeabilize bacterial cytoplasmic membrane was determined using the Gram-negative strain E. coli ML-35p and the Gram-positive strain S. aureus ST1065, as described. Briefly, after incubation of bacteria (37 °C) in 96-well plates with PBS containing 2.5 mM o-nitrophenyl-β-D-galactopyranoside (ONPG) and different concentrations of temporin-SHe, the production of o-nitrophenol (ONP) resulting from hydrolysis of ONPG by intracytoplasmic β-galactosidase was monitored at 405 nm according to the time (Fluostar Galaxy plate reader, BMG Labtech, Champigny-sur-Marne, France). Wells containing bacteria and ONPG, with no peptide, were used as negative control. Two independent experiments were performed in triplicate. Results are from a representative experiment and were expressed as the mean ± S.D.

E. coli ML-35p = type: cell-based, Escherichia coli; conditions: liquid growth inhibition (CLSI), 10^6 CFU/mL in MH broth, 37 °C, 18–20 h, OD 630 nm; mean of three independent experiments in triplicate
Experimental: as §3, §4

[12] = luciferase-expressing promastigotes 1.25 × 10^6 cells/mL, Steady-Glo, mean of three independent experiments in triplicate
[13] = peptide 12.5 µM, promastigotes, mean of three independent assays in triplicates

FLPALAGIAGLLGKIF-NH2 [Temporin-SHe]
IC50 [1, 12]: 10.5 µM | Leishmania growth inhibition (L. braziliensis) [1, 13]: 87% | IC50 [2, 12]: 4.6 µM | inhibition of L. infantum growth ([2]; peptide 3.12 µM, promastigotes, mean of three independent assays in triplicates): 42% | IC50 [3, 12]: 11.6 µM | Leishmania growth inhibition (L. major) [3, 13]: 85% | MIC (E. coli ATCC 25922 [4]): 25 µM | time to total killing (E. coli ATCC 25922 [5]): 90 min | MIC (P. aeruginosa ATCC 27853): 60 µM | MIC (A. baumannii ATCC 19606): 25 µM | MIC (S. aureus ATCC 25923 [6]): 3.12 µM | MIC [7]: 50 µM | MIC (S. aureus ST1065 [8]): 3.12 µM | MIC (B. megaterium): 1.56 µM | membrane depolarization (DiSC3(5) fluorescence increase) (S. aureus ATCC 25923 [9]): instantaneous | time to complete killing (S. aureus ST1065 [10]): ≤ 5 min | MIC range (E. coli strains): 25 to 50 µM | cytoplasmic membrane permeabilization (ONP production, A405) (S. aureus ST1065 [11]): time- and concentration-dependent manner | MIC (E. coli ML-35p): 50 µM
